The target in experiment [1] is T1, SARS-CoV-2 nsp3-mac1 (Severe acute respiratory syndrome coronavirus 2, UniProt P0DTD1). The experiment is described as follows: biochemical. The settings on record: SARS-CoV-2 nsp3 macrodomain TR-FRET single point, n=2. It is filed as biochemical.
The target in experiment [2] is T1, SARS-CoV-2 nsp3-mac1. Briefly: biochemical. Further details: SARS-CoV-2 nsp3 macrodomain TR-FRET single point, per cent inhibition, n=2.
[3] abbreviates: read-out: perc_inhibition_mean, batch_name=ASAP-0000310-001.
Where [4] appears, read: read-out: perc_inhibition_mean, batch_name=ASAP-0000311-001.
[5] abbreviates: read-out: perc_inhibition_mean, batch_name=ASAP-0000312-001.
Setting [6] is: read-out: perc_inhibition_mean, batch_name=ASAP-0000313-001.
[7] abbreviates: read-out: perc_inhibition_mean, batch_name=ASAP-0000314-001.
[8] abbreviates: read-out: perc_inhibition_mean, batch_name=ASAP-0000315-001.
The mark [9] stands for this setting: read-out: perc_inhibition_mean, batch_name=ASAP-0000316-001.
Where [10] appears, read: read-out: perc_inhibition_mean, batch_name=ASAP-0000317-001.
Where [11] appears, read: read-out: perc_inhibition_mean, batch_name=ASAP-0000318-001.
Where [12] appears, read: read-out: perc_inhibition_mean, batch_name=ASAP-0000319-001.
Setting [13] is: read-out: perc_inhibition_mean, batch_name=ASAP-0000320-001.
The mark [14] stands for this setting: read-out: perc_inhibition_mean, batch_name=ASAP-0000321-001.
Where [15] appears, read: read-out: perc_inhibition_mean, batch_name=ASAP-0000322-001.
Where [16] appears, read: read-out: perc_inhibition_mean, batch_name=ASAP-0000323-001.
The mark [17] stands for this setting: read-out: perc_inhibition_mean, batch_name=ASAP-0000324-001.

Read-outs that look alike come from different tables or passages of the source.

With `O=C(O)c1sccc1C(=O)N1CCC(c2ccn3ncc(C(=O)N4CCCCC4)c3c2)CC1` [ASAP-0000310], the perc_inhibition_mean in experiment [1] (concentration 49.75 uM) is 55.49%; in experiment [1] (concentration 99.5 uM), 71.528%. Moreover, the inhibition at 49.75 µM in experiment [2] (setting [3]) is 55.5%. Moreover, the inhibition at 99.5 µM in experiment [2] (setting [3]) was 71.5%.

In the case of `O=C(CCN(Cc1cccc(Cl)c1)C(=O)c1ccccc1F)N1CCNCC1` [ASAP-0000311], the perc_inhibition_mean in experiment [1] (concentration 49.75 uM) is recorded as -0.625%. Further, the perc_inhibition_mean in experiment [1] (concentration 99.5 uM) is recorded as 0.395%. For the same molecule, in experiment [2] (setting [4]), the inhibition at 49.75 µM is -0.625% and the inhibition at 99.5 µM amounted to 0.395%.

As to `C[C@]1(C(=O)N(CCC(=O)N2CCNCC2)Cc2cccc(Cl)c2)CCCN1` [ASAP-0000312], in experiment [1] (concentration 49.75 uM), the perc_inhibition_mean is 1.403%. In addition, in experiment [1] (concentration 99.5 uM), the perc_inhibition_mean came out at 2.129%. Further, in experiment [2] (setting [5]), the inhibition at 49.75 µM was found to be 1.4% and the inhibition at 99.5 µM was 2.13%.

For the molecule `O=C(Nc1ccccc1)Nc1ccc(C(=O)Nc2ncccc2F)cc1` [ASAP-0000313], in experiment [1] (concentration 49.75 uM), the perc_inhibition_mean is listed as 4.588%. Also, in experiment [1] (concentration 99.5 uM), the perc_inhibition_mean amounted to 10.201%. In experiment [2] (setting [6]), the inhibition at 49.75 µM came out at 4.59% and the inhibition at 99.5 µM came out at 10.2%.

On to `Cc1ncc(C(=O)N(CCC(=O)N2CCNCC2)Cc2cccc(Cl)c2)cc1N` [ASAP-0000314], for which the perc_inhibition_mean in experiment [1] (concentration 49.75 uM) came to 1.351%. The perc_inhibition_mean in experiment [1] (concentration 99.5 uM) is given as 1.305%. In addition, in experiment [2] (setting [7]), the inhibition at 49.75 µM amounted to 1.35% and the inhibition at 99.5 µM worked out at 1.3%.

On to `CC(C)c1c[nH]nc1NC(=O)c1ccc(NC(=O)Nc2ccccc2)cc1` [ASAP-0000315], for which the perc_inhibition_mean in experiment [1] (concentration 49.75 uM) worked out at 6.988%. Moreover, the perc_inhibition_mean in experiment [1] (concentration 99.5 uM) was 8.502%. Further, in experiment [2] (setting [8]), the inhibition at 49.75 µM worked out at 6.99% and the inhibition at 99.5 µM amounted to 8.5%.

As to `CCc1n[nH]c(NC(=O)c2ccc(NC(=O)Nc3ccccc3)cc2)c1Br` [ASAP-0000316], the perc_inhibition_mean in experiment [1] (concentration 49.75 uM) is recorded as -5.574%. Moreover, the perc_inhibition_mean in experiment [1] (concentration 99.5 uM) is listed as 0.467%. In addition, in experiment [2] (setting [9]), the inhibition at 49.75 µM is -5.57% and the inhibition at 99.5 µM stood at 0.467%.

As for `O=C(Nc1ccccc1)Nc1ccc(C(=O)Nc2nnc(C(F)(F)F)[nH]2)cc1` [ASAP-0000317], the perc_inhibition_mean in experiment [1] (concentration 49.75 uM) is -3.198%. In addition, the perc_inhibition_mean in experiment [1] (concentration 99.5 uM) was -1.459%. In experiment [2] (setting [10]), the inhibition at 49.75 µM was -3.2% and the inhibition at 99.5 µM is -1.46%.

Regarding `O=C(CCN(Cc1cccc(Cl)c1)C(=O)c1c[nH]c(=O)cn1)N1CCNCC1` [ASAP-0000318], the perc_inhibition_mean in experiment [1] (concentration 49.75 uM) is -2.705%; in experiment [1] (concentration 99.5 uM), 0.98%. The inhibition at 49.75 µM in experiment [2] (setting [11]) was -2.71%. Further, in experiment [2] (setting [11]), the inhibition at 99.5 µM was 0.98%.

With `Nc1ncc(C(=O)N(CCC(=O)N2CCNCC2)Cc2cccc(Cl)c2)cn1` [ASAP-0000319], the perc_inhibition_mean in experiment [1] (concentration 49.75 uM) was -2.76%. The perc_inhibition_mean in experiment [1] (concentration 99.5 uM) is -1.726%. In experiment [2] (setting [12]), the inhibition at 49.75 µM was -2.76% and the inhibition at 99.5 µM is -1.73%.

On to `CCn1cc(CNC(=O)c2ccc(NC(=O)Nc3ccccc3)cc2)cn1` [ASAP-0000320], for which the perc_inhibition_mean in experiment [1] (concentration 49.75 uM) is on record as -1.76%. For the same molecule, the perc_inhibition_mean in experiment [1] (concentration 99.5 uM) was determined as 3.797%. Moreover, in experiment [2] (setting [13]), the inhibition at 49.75 µM was -1.76% and the inhibition at 99.5 µM is 3.8%.

`Cn1c(C(=O)N(CCC(=O)N2CCNCC2)Cc2cccc(Cl)c2)cnc1O` [ASAP-0000321]: in experiment [1] (concentration 49.75 uM), the perc_inhibition_mean is on record as -4.765%. The perc_inhibition_mean in experiment [1] (concentration 99.5 uM) was -2.757%. In experiment [2] (setting [14]), the inhibition at 49.75 µM is -4.76% and the inhibition at 99.5 µM is -2.76%.

As to `CC(C)n1nccc1NC(=O)c1ccc(NC(=O)Nc2ccccc2)cc1` [ASAP-0000322], in experiment [1] (concentration 49.75 uM), the perc_inhibition_mean is listed as -1.998%. For the same molecule, the perc_inhibition_mean in experiment [1] (concentration 99.5 uM) is reported as -0.924%. Further, in experiment [2] (setting [15]), the inhibition at 49.75 µM was -2% and the inhibition at 99.5 µM is -0.924%.

As for `O=C(CCN(Cc1cccc(Cl)c1)C(=O)[C@@H]1CNCC12CC2)N1CCNCC1` [ASAP-0000323], the perc_inhibition_mean is recorded as 4.205% in experiment [1] (concentration 49.75 uM) and 2.382% in experiment [1] (concentration 99.5 uM). Moreover, in experiment [2] (setting [16]), the inhibition at 49.75 µM is 4.21%. Also, in experiment [2] (setting [16]), the inhibition at 99.5 µM was 2.38%.

For the molecule `CO[C@@H]1CCCN(C(=O)c2cnn3ccc(C4CCN(C(=O)c5ccccc5)CC4)cc23)C1` [ASAP-0000324], in experiment [1] (concentration 49.75 uM), the perc_inhibition_mean is reported as 22.606%. Moreover, the perc_inhibition_mean in experiment [1] (concentration 99.5 uM) came out at 39.842%. Moreover, in experiment [2] (setting [17]), the inhibition at 49.75 µM turned out to be 22.6% and the inhibition at 99.5 µM came out at 39.8%.

These data come from doi:10.1101/2024.08.19.608619, “Discovery of potent SARS-CoV-2 nsp3 macrodomain inhibitors uncovers lack of translation to cellular antiviral response” (bioRxiv, 2024).
